# Source: the kinase profiling compilation of Christmann-Franck et al. (2016)
# How the values were obtained:
# Test in all cases: radiometric filter-binding kinase assay
# RPS6KA5 KD1 KD2 (human) = RPS6KA5 KD1 KD2 (human) (UniProt O75582)
# SRC (human) = SRC (human) (UniProt P12931)
# PRKCA (human) = PRKCA (human) (UniProt P17252)
# HIPK1 (human) = HIPK1 (human) (UniProt Q86Z02)
# NUAK1 (human) = NUAK1 (human) (UniProt O60285)
# [1] = system: SGK1 (human), O00141 [S422D]; settings: compound 1.0 µM
# MARK4 (human) = MARK4 (human) (UniProt Q96L34)
# TAOK1 (human) = TAOK1 (human) (UniProt Q7L7X3); settings: compound 0.1 µM
# PLK1 (human) = PLK1 (human) (UniProt P53350)
# PLK1 (human), sequence (P53350 whole entry, looked up): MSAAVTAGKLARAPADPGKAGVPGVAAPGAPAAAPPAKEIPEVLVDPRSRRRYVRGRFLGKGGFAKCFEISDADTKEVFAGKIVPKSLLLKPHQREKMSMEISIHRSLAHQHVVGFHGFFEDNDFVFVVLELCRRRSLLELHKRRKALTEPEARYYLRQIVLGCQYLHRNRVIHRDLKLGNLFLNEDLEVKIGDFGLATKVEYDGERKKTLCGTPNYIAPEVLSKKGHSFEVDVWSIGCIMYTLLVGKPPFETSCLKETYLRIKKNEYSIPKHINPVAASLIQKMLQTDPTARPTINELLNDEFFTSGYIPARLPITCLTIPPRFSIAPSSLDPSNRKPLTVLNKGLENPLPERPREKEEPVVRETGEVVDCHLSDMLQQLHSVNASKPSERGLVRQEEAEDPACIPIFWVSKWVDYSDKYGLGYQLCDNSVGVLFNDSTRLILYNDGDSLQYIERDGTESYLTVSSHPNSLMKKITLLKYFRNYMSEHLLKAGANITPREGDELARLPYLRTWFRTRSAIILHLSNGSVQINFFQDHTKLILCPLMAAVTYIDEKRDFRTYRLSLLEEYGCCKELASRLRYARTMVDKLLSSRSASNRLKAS
# GCK (human) = GCK (human) (UniProt Q12851)
# CDK2 CCNA2 (human) = CDK2 CCNA2 (human) (UniProt P20248+P24941)
# EEF2K (human) = EEF2K (human) (UniProt O00418)
# FLT1 (human) = FLT1 (human) (UniProt P17948)
# MAPK3 (human) = MAPK3 (human) (UniProt P27361)
# ERBB4 (human) = ERBB4 (human) (UniProt Q15303); settings: compound 1.0 µM
# CLK2 (human) = CLK2 (human) (UniProt P49760)
# MAP3K5 (human) = MAP3K5 (human) (UniProt Q99683)
# MAPK1 (human) = MAPK1 (human) (UniProt P28482)
# MAPK1 (human), sequence (P28482 whole entry, looked up): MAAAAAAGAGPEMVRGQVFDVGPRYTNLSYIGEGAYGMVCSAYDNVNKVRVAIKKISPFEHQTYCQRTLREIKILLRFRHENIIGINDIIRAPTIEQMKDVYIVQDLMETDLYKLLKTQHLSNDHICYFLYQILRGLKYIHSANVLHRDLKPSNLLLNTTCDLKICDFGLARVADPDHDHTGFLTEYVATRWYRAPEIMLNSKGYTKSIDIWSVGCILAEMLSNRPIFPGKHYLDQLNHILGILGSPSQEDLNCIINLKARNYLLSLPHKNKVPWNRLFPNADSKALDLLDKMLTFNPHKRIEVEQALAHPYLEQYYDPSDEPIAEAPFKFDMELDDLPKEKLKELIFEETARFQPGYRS
# MAP3K1 (human) = MAP3K1 (human) (UniProt Q13233)
# MAP3K1 (human), sequence (Q13233 whole entry, looked up): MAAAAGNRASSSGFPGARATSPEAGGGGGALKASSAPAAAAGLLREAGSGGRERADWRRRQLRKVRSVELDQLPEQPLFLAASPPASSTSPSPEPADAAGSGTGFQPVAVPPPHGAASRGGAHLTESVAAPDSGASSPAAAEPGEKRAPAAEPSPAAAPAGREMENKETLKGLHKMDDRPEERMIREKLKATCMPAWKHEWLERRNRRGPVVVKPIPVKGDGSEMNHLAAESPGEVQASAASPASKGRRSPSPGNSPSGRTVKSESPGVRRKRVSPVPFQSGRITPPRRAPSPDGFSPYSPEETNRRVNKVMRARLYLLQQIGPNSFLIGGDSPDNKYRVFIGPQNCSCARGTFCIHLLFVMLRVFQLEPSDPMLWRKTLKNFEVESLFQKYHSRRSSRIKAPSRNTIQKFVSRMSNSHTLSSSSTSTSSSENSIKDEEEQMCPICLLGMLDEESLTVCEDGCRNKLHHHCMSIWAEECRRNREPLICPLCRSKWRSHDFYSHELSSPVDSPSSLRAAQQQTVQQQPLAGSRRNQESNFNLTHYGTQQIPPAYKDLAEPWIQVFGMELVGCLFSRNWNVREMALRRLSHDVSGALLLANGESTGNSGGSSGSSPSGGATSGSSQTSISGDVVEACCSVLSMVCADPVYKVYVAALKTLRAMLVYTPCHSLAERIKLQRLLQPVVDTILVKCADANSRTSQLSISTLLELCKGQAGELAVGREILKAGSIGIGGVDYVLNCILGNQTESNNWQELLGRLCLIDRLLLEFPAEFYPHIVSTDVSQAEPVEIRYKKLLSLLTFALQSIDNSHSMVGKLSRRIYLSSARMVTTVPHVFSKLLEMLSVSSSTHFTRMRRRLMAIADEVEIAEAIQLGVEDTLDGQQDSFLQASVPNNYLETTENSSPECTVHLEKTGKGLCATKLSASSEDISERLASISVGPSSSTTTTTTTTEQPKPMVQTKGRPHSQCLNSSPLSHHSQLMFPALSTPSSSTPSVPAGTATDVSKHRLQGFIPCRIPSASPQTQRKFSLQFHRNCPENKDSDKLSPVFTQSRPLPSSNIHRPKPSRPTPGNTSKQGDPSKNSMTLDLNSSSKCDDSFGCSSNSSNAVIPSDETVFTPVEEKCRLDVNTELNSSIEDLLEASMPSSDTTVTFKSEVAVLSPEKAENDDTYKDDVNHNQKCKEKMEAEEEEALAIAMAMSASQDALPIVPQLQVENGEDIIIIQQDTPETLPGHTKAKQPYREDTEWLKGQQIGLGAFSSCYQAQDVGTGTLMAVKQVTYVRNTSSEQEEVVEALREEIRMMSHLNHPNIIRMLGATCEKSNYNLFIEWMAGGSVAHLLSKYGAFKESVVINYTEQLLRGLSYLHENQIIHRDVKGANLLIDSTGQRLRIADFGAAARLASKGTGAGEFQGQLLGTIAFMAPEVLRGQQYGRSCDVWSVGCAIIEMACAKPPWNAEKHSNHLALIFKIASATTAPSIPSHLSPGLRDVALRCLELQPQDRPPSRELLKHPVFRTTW
# PAK6 (human) = PAK6 (human) (UniProt Q9NQU5)
# NTRK1 (human) = NTRK1 (human) (UniProt P04629); settings: compound 1.0 µM
# DAPK1 (human) = DAPK1 (human) (UniProt P53355)
# CHEK2 (human) = CHEK2 (human) (UniProt O96017)
# JAK2 JH1 JH2 (human) = JAK2 JH1 JH2 (human) (UniProt O60674)
# JAK2 JH1 JH2 (human), sequence (O60674 whole entry, looked up): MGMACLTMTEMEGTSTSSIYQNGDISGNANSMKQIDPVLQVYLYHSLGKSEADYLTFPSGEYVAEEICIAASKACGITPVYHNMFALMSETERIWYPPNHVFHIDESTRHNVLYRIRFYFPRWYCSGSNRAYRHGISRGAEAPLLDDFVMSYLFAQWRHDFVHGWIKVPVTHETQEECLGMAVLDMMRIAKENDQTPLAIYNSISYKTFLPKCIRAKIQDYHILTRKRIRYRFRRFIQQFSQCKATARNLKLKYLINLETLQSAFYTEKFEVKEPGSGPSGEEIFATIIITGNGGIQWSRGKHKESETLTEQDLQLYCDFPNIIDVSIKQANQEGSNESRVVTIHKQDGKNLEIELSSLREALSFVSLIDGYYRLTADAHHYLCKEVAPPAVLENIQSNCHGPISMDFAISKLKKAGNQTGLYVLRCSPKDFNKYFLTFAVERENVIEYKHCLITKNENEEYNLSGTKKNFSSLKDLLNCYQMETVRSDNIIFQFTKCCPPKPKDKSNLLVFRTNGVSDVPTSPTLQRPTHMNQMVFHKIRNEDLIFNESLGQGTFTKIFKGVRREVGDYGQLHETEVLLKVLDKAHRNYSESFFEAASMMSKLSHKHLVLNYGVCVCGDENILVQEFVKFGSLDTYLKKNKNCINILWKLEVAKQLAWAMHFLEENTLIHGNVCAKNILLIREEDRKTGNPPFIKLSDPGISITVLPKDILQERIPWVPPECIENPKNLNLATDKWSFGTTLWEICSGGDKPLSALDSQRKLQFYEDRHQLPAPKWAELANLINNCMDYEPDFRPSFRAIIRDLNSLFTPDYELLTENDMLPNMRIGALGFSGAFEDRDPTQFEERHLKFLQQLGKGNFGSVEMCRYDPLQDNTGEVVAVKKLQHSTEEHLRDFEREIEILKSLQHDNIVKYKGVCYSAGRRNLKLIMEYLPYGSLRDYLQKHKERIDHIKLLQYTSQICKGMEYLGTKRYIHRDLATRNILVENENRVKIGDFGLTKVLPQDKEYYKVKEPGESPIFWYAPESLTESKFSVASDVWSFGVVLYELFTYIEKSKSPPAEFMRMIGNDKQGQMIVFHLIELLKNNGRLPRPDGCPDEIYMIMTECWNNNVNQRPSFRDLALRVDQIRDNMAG
# EPHB4 (human) = EPHB4 (human) (UniProt P54760)
# EPHB4 (human), sequence (P54760 whole entry, looked up): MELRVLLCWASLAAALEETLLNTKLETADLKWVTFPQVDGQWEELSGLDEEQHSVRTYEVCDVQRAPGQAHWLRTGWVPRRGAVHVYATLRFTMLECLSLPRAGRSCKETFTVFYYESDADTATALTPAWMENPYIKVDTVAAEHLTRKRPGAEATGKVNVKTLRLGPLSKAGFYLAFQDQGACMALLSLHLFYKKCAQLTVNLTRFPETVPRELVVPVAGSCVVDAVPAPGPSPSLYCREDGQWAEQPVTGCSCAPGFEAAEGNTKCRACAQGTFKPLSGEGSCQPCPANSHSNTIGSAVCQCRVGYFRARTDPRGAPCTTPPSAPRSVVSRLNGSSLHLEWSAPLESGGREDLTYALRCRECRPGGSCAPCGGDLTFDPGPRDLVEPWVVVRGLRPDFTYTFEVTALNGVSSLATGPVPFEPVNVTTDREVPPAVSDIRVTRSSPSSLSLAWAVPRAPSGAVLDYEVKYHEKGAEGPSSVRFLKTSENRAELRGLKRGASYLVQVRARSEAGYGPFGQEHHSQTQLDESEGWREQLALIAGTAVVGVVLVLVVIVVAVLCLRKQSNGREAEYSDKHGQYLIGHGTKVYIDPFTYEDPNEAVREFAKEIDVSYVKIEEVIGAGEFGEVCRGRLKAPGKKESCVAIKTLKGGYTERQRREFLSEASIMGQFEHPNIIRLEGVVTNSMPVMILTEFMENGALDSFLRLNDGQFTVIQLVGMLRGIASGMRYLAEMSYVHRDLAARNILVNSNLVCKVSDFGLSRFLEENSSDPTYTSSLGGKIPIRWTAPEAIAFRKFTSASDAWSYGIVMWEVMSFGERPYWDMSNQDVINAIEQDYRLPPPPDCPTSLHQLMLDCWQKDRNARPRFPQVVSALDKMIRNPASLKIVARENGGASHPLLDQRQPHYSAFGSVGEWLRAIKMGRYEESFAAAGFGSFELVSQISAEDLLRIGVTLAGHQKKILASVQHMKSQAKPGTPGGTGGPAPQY
# CHEK1 (human) = CHEK1 (human) (UniProt O14757)
# RPS6KA3 KD1 KD2 (human) = RPS6KA3 KD1 KD2 (human) (UniProt P51812)
# MST4 (human) = MST4 (human) (UniProt Q9P289)
# BRSK2 (human) = BRSK2 (human) (UniProt Q8IWQ3)
# PRKCZ (human) = PRKCZ (human) (UniProt Q05513)
# MARK3 (human) = MARK3 (human) (UniProt P27448)
# AURKA (human) = AURKA (human) (UniProt O14965)
# STK3 (human) = STK3 (human) (UniProt Q13188)
# STK3 (human), sequence (Q13188 whole entry, looked up): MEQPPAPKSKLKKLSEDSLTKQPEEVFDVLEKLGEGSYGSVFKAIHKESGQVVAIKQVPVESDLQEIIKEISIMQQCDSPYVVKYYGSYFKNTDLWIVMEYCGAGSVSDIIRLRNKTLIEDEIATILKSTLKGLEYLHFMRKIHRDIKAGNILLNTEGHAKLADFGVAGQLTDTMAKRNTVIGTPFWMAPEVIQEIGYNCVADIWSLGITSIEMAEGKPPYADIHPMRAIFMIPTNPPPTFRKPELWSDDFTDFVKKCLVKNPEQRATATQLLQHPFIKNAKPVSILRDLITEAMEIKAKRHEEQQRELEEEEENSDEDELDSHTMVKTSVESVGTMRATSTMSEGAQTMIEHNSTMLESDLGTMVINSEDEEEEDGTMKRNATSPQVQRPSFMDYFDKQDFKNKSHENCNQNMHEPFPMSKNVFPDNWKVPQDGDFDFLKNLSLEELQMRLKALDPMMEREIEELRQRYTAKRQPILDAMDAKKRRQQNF
# HIPK3 (human) = HIPK3 (human) (UniProt Q9H422); settings: compound 0.1 µM
structure (smiles),measurement,setting,value
CN(C)C/C=C/C(=O)Nc1cccc(C(=O)Nc2ccc(Nc3nccc(-c4cccnc4)n3)cc2)c1,residual activity,RPS6KA5 KD1 KD2 (human); compound 0.1 µM,88%
same,residual activity,RPS6KA5 KD1 KD2 (human); compound 1.0 µM,91%
same,residual activity,SRC (human); compound 0.1 µM,93%
same,residual activity,SRC (human); compound 1.0 µM,72%
same,residual activity,PRKCA (human); compound 0.1 µM,89%
same,residual activity,PRKCA (human); compound 1.0 µM,97%
same,residual activity,HIPK1 (human); compound 0.1 µM,86%
same,residual activity,HIPK1 (human); compound 1.0 µM,78%
same,residual activity,NUAK1 (human); compound 0.1 µM,35%
same,residual activity,NUAK1 (human); compound 1.0 µM,82%
same,residual activity,[1],105%
same,residual activity,MARK4 (human); compound 0.1 µM,85%
same,residual activity,MARK4 (human); compound 1.0 µM,83%
same,residual activity,TAOK1 (human),96%
same,residual activity,PLK1 (human); compound 0.1 µM,91%
same,residual activity,PLK1 (human); compound 1.0 µM,106%
same,residual activity,GCK (human); compound 0.1 µM,45%
same,residual activity,GCK (human); compound 1.0 µM,20%
same,residual activity,CDK2 CCNA2 (human); compound 0.1 µM,85%
same,residual activity,CDK2 CCNA2 (human); compound 1.0 µM,72%
same,residual activity,EEF2K (human); compound 0.1 µM,97%
same,residual activity,EEF2K (human); compound 1.0 µM,101%
same,residual activity,FLT1 (human); compound 0.1 µM,59%
same,residual activity,FLT1 (human); compound 1.0 µM,32%
same,residual activity,MAPK3 (human); compound 0.1 µM,110%
same,residual activity,MAPK3 (human); compound 1.0 µM,109%
same,residual activity,ERBB4 (human),106%
same,residual activity,CLK2 (human); compound 0.1 µM,49%
same,residual activity,CLK2 (human); compound 1.0 µM,18%
same,residual activity,MAP3K5 (human); compound 0.1 µM,96%
same,residual activity,MAP3K5 (human); compound 1.0 µM,100%
same,residual activity,MAPK1 (human); compound 0.1 µM,99%
same,residual activity,MAPK1 (human); compound 1.0 µM,114%
same,residual activity,MAP3K1 (human); compound 0.1 µM,85%
same,residual activity,MAP3K1 (human); compound 1.0 µM,100%
same,residual activity,PAK6 (human); compound 0.1 µM,87%
same,residual activity,PAK6 (human); compound 1.0 µM,103%
same,residual activity,NTRK1 (human),82%
same,residual activity,DAPK1 (human); compound 0.1 µM,90%
same,residual activity,DAPK1 (human); compound 1.0 µM,83%
same,residual activity,CHEK2 (human); compound 0.1 µM,89%
same,residual activity,CHEK2 (human); compound 1.0 µM,73%
same,residual activity,JAK2 JH1 JH2 (human); compound 0.1 µM,85%
same,residual activity,JAK2 JH1 JH2 (human); compound 1.0 µM,77%
same,residual activity,EPHB4 (human); compound 0.1 µM,105%
same,residual activity,EPHB4 (human); compound 1.0 µM,109%
same,residual activity,CHEK1 (human); compound 0.1 µM,74%
same,residual activity,CHEK1 (human); compound 1.0 µM,88%
same,residual activity,RPS6KA3 KD1 KD2 (human); compound 0.1 µM,80%
same,residual activity,RPS6KA3 KD1 KD2 (human); compound 1.0 µM,80%
same,residual activity,MST4 (human); compound 0.1 µM,98%
same,residual activity,MST4 (human); compound 1.0 µM,104%
same,residual activity,BRSK2 (human); compound 0.1 µM,82%
same,residual activity,BRSK2 (human); compound 1.0 µM,76%
same,residual activity,PRKCZ (human); compound 0.1 µM,112%
same,residual activity,PRKCZ (human); compound 1.0 µM,103%
same,residual activity,MARK3 (human); compound 0.1 µM,101%
same,residual activity,MARK3 (human); compound 1.0 µM,76%
same,residual activity,AURKA (human); compound 0.1 µM,107%
same,residual activity,AURKA (human); compound 1.0 µM,97%
same,residual activity,STK3 (human); compound 0.1 µM,83%
same,residual activity,STK3 (human); compound 1.0 µM,64%
same,residual activity,HIPK3 (human),113%
